Test results: patent publication US8748415B2 (priority 2011, dated 2014)

Test system: recombinant NL4-3 virus (Renilla luciferase in nef, Gag P373S)
Assay: HIV cell culture assay (luciferase activity in MT-2 cells infected with NLRluc recombinant virus)
Type: cell-based
Settings: NL43, MT-2 cells infected 4-5 days with NLRluc recombinant virus
Procedure, shortened: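 Activity was read as luciferase output (Dual Luciferase reagents premixed with lysis solution) after 4–5 days of infection in serially diluted inhibitor. Host cells were MT-2 in 10% FBS RPMI. The reporter virus came from transfected 293T cells and was titered on MT-2.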

Row | Compound | EC50 (class symbol) | EC50 (numeric value)
1 | C=C(C)[C@@H]1CC[C@]2(CNCCC(=O)N3CCS(=O)(=O)C3)CC[C@]3(C)[C@H](CC[C@@H]4[C@@]5(C)CC=C(c6ccc(C(=O)O)cc6)C(C)(C)[C@@H]5CC[C@]43C)[C@@H]12 [Example 120, 4-((1R,3aS,5aR,5bR,7aR,11aS,11bR,13aR,13bR)-3a-(((3-(1,1-dioxido-1,3-thiazolidin-3-yl)-3-oxopropyl)amino)methyl)-1-isopropenyl-5a,5b,8,8,11a-pentamethyl-2,3,3a,4,5,5a,5b,6,7,7a,8,11,11a,11b,12,13,13a,13b-octadecahydro-1H-cyclopenta[a]chrysen-9-yl)benzoic acid] | < 100 nM | –
2 | CC(C)[C@@H]1CC[C@]2(CNCCCN3CCS(=O)(=O)CC3)CC[C@]3(C)[C@H](CC[C@@H]4[C@@]5(C)CC=C(c6ccc(C(=O)O)cc6)C(C)(C)[C@@H]5CC[C@]43C)[C@@H]12 [Example 37, 4-((1R,3aS,5aR,5bR,7aR,11aS,11bR,13aR,13bR)-5a,5b,8,8,11a-pentamethyl-1-(prop-1-en-2-yl)-3a-((3-(1-dioxo-thiomorpholino)propylamino)methyl)-2,3,3a,4,5,5a,5b,6,7,7a,8,11,11a,11b,12,13,13a,13b-octadecahydro-1H-cyclopenta[a]chrysen-9-yl)benzoic acid] | < 100 nM | –
3 | C=C(C)[C@@H]1CC[C@]2(CNCCN(C)CCS(C)(=O)=O)CC[C@]3(C)[C@H](CC[C@@H]4[C@@]5(C)CC=C(c6ccc(C(=O)O)cc6)C(C)(C)[C@@H]5CC[C@]43C)[C@@H]12 [Example 85, 4-((1R,3aS,5aR,5bR,7aR,11aS,11bR,13aR,13bR)-5a,5b,8,8,11a-pentamethyl-3a-((2-(methyl(2-(methylsulfonyl)ethyl)amino)ethylamino)methyl)-1-(prop-1-en-2-yl)-2,3,3a,4,5,5a,5b,6,7,7a,8,11,11a,11b,12,13,13a,13b-octadecahydro-1H-cyclopenta[a]chrysen-9-yl)benzoic acid] | < 100 nM | –
4 | C=C(C)[C@@H]1CC[C@]2(CNCCN3CCCCC3=O)CC[C@]3(C)[C@H](CC[C@@H]4[C@@]5(C)CC=C(c6ccc(C(=O)O)cc6)C(C)(C)[C@@H]5CC[C@]43C)[C@@H]12 [Example 78, 4-((1R,3aS,5aR,5bR,7aR,11aS,11bR,13aR,13bR)-5a,5b,8,8,11a-pentamethyl-3a-((2-(2-oxopiperidin-1-yl)ethylamino)methyl)-1-(prop-1-en-2-yl)-2,3,3a,4,5,5a,5b,6,7,7a,8,11,11a,11b,12,13,13a,13b-octadecahydro-1H-cyclopenta[a]chrysen-9-yl)benzoic acid] | < 100 nM | –
5 | C=C(C)[C@@H]1CC[C@]2(CNCCCN(C)c3ccccc3)CC[C@]3(C)[C@H](CC[C@@H]4[C@@]5(C)CC=C(c6ccc(C(=O)O)cc6)C(C)(C)[C@@H]5CC[C@]43C)[C@@H]12 [Example 18, 4-((1R,3aS,5aR,5bR,7aR,11aS,11bR,13aR,13bR)-5a,5b,8,8,11a-pentamethyl-3a-((3-(methyl(phenyl)amino)propylamino)methyl)-1-(prop-1-en-2-yl)-2,3,3a,4,5,5a,5b,6,7,7a,8,11,11a,11b,12,13,13a,13b-octadecahydro-1H-cyclopenta[a]chrysen-9-yl)benzoic acid] | < 100 nM | –
6 | C=C(C)[C@@H]1CC[C@]2(CN(CCCN3CCS(=O)(=O)CC3)C(=O)CCC(=O)O)CC[C@]3(C)[C@H](CC[C@@H]4[C@@]5(C)CC=C(c6ccc(C(=O)O)cc6)C(C)(C)[C@@H]5CC[C@]43C)[C@@H]12 [Example 16, 4-((1R,3aS,5aR,5bR,7aR,11aS,11bR,13aR,13bR)-5a,5b,8,8,11a-pentamethyl-1-(prop-1-en-2-yl)-3a-((3-(1-dioxo-thiomorpholino)propylamino)methyl)-2,3,3a,4,5,5a,5b,6,7,7a,8,11,11a,11b,12,13,13a,13b-octadecahydro-1H-cyclopenta[a]chrysen-9-yl)benzoic acid] | < 100 nM | –
7 | C=C(C)[C@@H]1CC[C@]2(CNCCN3CCCC3=O)CC[C@]3(C)[C@H](CC[C@@H]4[C@@]5(C)CC=C(c6ccc(C(=O)O)cc6)C(C)(C)[C@@H]5CC[C@]43C)[C@@H]12 [Example 34, 4-((1R,3aS,5aR,5bR,7aR,11aS,11bR,13aR,13bR)-5a,5b,8,8,11a-pentamethyl-3a-((2-(2-oxopyrrolidin-1-yl)ethylamino)methyl)-1-(prop-1-en-2-yl)-2,3,3a,4,5,5a,5b,6,7,7a,8,11,11a,11b,12,13,13a,13b-octadecahydro-1H-cyclopenta[a]chrysen-9-yl)benzoic acid] | < 100 nM | –
8 | C=C(C)[C@@H]1CC[C@]2(CNCCC(=O)N3C[C@H]4CC[C@@H](C3)N4C)CC[C@]3(C)[C@H](CC[C@@H]4[C@@]5(C)CC=C(c6ccc(C(=O)O)cc6)C(C)(C)[C@@H]5CC[C@]43C)[C@@H]12 [Example 121, 4-((1R,3aS,5aR,5bR,7aR,11aS,11bR,13aR,13bR)-5a,5b,8,8,11a-pentamethyl-3a-((3-((1R,5S)-8-methyl-3,8-diazabicyclo[3.2.1]octan-3-yl)-3-oxopropylamino)methyl)-1-(prop-1-en-2-yl)-2,3,3a,4,5,5a,5b,6,7,7a,8,11,11a,11b,12,13,13a,13b-octadecahydro-1H-cyclopenta[a]chrysen-9-yl)benzoic acid] | < 100 nM | –
9 | C=C(C)[C@@H]1CC[C@]2(CNC(=O)C(F)(F)C(=O)O)CC[C@]3(C)[C@H](CC[C@@H]4[C@@]5(C)CC=C(c6ccc(C(=O)O)cc6)C(C)(C)[C@@H]5CC[C@]43C)[C@@H]12 [Example 153, 4-((1R,3aS,5aR,5bR,7aR,11aS,11bR,13aR,13bR)-3a-((2-carboxy-2,2-difluoroacetamido)methyl)-5a,5b,8,8,11a-pentamethyl-1-(prop-1-en-2-yl)-2,3,3a,4,5,5a,5b,6,7,7a,8,11,11a,11b,12,13,13a,13b-octadecahydro-1H-cyclopenta[a]chrysen-9-yl)benzoic acid] | > 100 nM | –
10 | C=C(C)[C@@H]1CC[C@]2(CNC3(C(=O)N4CCS(=O)(=O)CC4)CC3)CC[C@]3(C)[C@H](CC[C@@H]4[C@@]5(C)CC=C(c6ccc(C(=O)O)cc6)C(C)(C)[C@@H]5CC[C@]43C)[C@@H]12 [Example 116, 4-((1R,3aS,5aR,5bR,7aR,11aS,11bR,13aR,13bR)-3a-(((1-((1,1-dioxido-4-thiomorpholinyl)carbonyl)cyclopropyl)amino)methyl)-1-isopropenyl-5a,5b,8,8,11a-pentamethyl-2,3,3a,4,5,5a,5b,6,7,7a,8,11,11a,11b,12,13,13a,13b-octadecahydro-1H-cyclopenta[a]chrysen-9-yl)benzoic acid] | < 100 nM | –
11 | C=C(C)[C@@H]1CC[C@]2(CNCCCN3CCOCC3)CC[C@]3(C)[C@H](CC[C@@H]4[C@@]5(C)CC=C(c6ccc(C(=O)O)cc6)C(C)(C)[C@@H]5CC[C@]43C)[C@@H]12 [Example 2, 4-((1R,3aS,5aR,5bR,7aR,11aS,11bR,13aR,13bR)-5a,5b,8,8,11a-pentamethyl-3a-((3-morpholinopropylamino)methyl)-1-(prop-1-en-2-yl)-2,3,3a,4,5,5a,5b,6,7,7a,8,11,11a,11b,12,13,13a,13b-octadecahydro-1H-cyclopenta[a]chrysen-9-yl)benzoic acid] | < 100 nM | –
12 | C=C(C)[C@@H]1CC[C@]2(CNC(=O)c3cccc(C(=O)O)c3)CC[C@]3(C)[C@H](CC[C@@H]4[C@@]5(C)CC=C(c6ccc(C(=O)O)cc6)C(C)(C)[C@@H]5CC[C@]43C)[C@@H]12 [Example 143, 3-(((1R,3aS,5aR,5bR,7aR,11aS,11bR,13aR,13bR)-9-(4-carboxyphenyl)-5a,5b,8,8,11a-pentamethyl-1-(prop-1-en-2-yl)-2,3,3a,4,5,5a,5b,6,7,7a,8,11,11a,11b,12,13,13a,13b-octadecahydro-1H-cyclopenta[a]chrysen-3a-yl)methylcarbamoyl)benzoic acid] | < 100 nM | –
13 | C=C(C)[C@@H]1CC[C@]2(CNC(=O)Nc3ccc(C(=O)OC)cc3)CC[C@]3(C)[C@H](CC[C@@H]4[C@@]5(C)CC=C(c6ccc(C(=O)O)cc6)C(C)(C)[C@@H]5CC[C@]43C)[C@@H]12 [Example 160, 4-((1R,3aS,5aR,5bR,7aR,11aS,11bR,13aR,13bR)-3a-((3-(4-(methoxycarbonyl)phenyl)ureido)methyl)-5a,5b,8,8,11a-pentamethyl-1-(prop-1-en-2-yl)-2,3,3a,4,5,5a,5b,6,7,7a,8,11,11a,11b,12,13,13a,13b-octadecahydro-1H-cyclopenta[a]chrysen-9-yl)benzoic acid] | – | 260 nM
14 | C=C(C)[C@@H]1CC[C@]2(CNCCc3c[nH]cn3)CC[C@]3(C)[C@H](CC[C@@H]4[C@@]5(C)CC=C(c6ccc(C(=O)O)cc6)C(C)(C)[C@@H]5CC[C@]43C)[C@@H]12 [Example 25, 4-((1R,3aS,5aR,5bR,7aR,11aS,11bR,13aR,13bR)-3a-((2-(1H-imidazol-4-yl)ethylamino)methyl)-5a,5b,8,8,11a-pentamethyl-1-(prop-1-en-2-yl)-2,3,3a,4,5,5a,5b,6,7,7a,8,11,11a,11b,12,13,13a,13b-octadecahydro-1H-cyclopenta[a]chrysen-9-yl)benzoic acid] | < 100 nM | –
15 | C=C(C)[C@@H]1CC[C@]2(CNC(=O)CNC)CC[C@]3(C)[C@H](CC[C@@H]4[C@@]5(C)CC=C(c6ccc(C(=O)O)cc6)C(C)(C)[C@@H]5CC[C@]43C)[C@@H]12 [Example 139, 4-((1R,3aS,5aR,5bR,7aR,11aS,11bR,13aR,13bR)-5a,5b,8,8,11a-pentamethyl-3a-((2-(methylamino)acetamido)methyl)-1-(prop-1-en-2-yl)-2,3,3a,4,5,5a,5b,6,7,7a,8,11,11a,11b,12,13,13a,13b-octadecahydro-1H-cyclopenta[a]chrysen-9-yl)benzoic acid] | < 100 nM | –
